# Data reported in ChEMBL document CHEMBL1133452, “Identification of novel purine and pyrimidine cyclin-dependent kinase inhibitors with distinct molecular interactions and tumor cell growth inhibition profiles” (J Med Chem, 2000).
# What was measured:
# [1] = test system: NCI; test: cells; conditions: Homo sapiens, read-out: Mean GI50
# Description: Inhibition of NCI cell line proliferation
# [2] = target: Cyclin-dependent kinase 2 (Homo sapiens, UniProt P24941); test: Inhibition of Cyclin-dependent kinase 2 enzyme from starfish oocytes; parameters: species or system Marthasterias glacialis, Oocyte
# [3] = target: Cyclin-dependent kinase 1/cyclin B (Homo sapiens, UniProt O95067+P06493+P14635+Q8WWL7); test: Inhibition of Cyclin-dependent kinase 1 enzyme from starfish oocytes; parameters: species or system Marthasterias glacialis, Oocyte
# Cyclin-dependent kinase 1/cyclin B, sequence (P06493 whole entry): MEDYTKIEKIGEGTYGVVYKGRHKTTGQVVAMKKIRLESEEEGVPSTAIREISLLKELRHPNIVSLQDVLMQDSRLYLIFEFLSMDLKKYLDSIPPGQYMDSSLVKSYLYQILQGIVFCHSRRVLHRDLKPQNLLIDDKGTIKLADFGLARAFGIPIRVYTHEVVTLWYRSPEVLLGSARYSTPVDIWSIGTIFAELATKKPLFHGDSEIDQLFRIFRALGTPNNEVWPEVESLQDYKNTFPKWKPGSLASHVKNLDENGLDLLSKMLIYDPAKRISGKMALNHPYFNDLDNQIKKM
# Cyclin-dependent kinase 1/cyclin B, sequence (P14635 whole entry): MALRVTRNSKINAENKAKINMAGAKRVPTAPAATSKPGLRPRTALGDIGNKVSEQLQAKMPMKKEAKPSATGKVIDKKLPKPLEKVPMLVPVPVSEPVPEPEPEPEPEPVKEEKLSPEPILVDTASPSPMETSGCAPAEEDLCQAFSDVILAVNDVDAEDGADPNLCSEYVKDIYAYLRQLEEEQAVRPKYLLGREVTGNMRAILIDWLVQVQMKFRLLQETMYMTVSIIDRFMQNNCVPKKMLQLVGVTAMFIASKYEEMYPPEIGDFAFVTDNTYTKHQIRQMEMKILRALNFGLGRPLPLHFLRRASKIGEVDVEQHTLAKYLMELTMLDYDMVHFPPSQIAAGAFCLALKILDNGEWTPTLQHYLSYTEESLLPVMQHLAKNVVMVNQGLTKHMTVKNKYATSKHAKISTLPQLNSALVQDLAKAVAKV
# Cyclin-dependent kinase 1/cyclin B, sequence (Q8WWL7 whole entry): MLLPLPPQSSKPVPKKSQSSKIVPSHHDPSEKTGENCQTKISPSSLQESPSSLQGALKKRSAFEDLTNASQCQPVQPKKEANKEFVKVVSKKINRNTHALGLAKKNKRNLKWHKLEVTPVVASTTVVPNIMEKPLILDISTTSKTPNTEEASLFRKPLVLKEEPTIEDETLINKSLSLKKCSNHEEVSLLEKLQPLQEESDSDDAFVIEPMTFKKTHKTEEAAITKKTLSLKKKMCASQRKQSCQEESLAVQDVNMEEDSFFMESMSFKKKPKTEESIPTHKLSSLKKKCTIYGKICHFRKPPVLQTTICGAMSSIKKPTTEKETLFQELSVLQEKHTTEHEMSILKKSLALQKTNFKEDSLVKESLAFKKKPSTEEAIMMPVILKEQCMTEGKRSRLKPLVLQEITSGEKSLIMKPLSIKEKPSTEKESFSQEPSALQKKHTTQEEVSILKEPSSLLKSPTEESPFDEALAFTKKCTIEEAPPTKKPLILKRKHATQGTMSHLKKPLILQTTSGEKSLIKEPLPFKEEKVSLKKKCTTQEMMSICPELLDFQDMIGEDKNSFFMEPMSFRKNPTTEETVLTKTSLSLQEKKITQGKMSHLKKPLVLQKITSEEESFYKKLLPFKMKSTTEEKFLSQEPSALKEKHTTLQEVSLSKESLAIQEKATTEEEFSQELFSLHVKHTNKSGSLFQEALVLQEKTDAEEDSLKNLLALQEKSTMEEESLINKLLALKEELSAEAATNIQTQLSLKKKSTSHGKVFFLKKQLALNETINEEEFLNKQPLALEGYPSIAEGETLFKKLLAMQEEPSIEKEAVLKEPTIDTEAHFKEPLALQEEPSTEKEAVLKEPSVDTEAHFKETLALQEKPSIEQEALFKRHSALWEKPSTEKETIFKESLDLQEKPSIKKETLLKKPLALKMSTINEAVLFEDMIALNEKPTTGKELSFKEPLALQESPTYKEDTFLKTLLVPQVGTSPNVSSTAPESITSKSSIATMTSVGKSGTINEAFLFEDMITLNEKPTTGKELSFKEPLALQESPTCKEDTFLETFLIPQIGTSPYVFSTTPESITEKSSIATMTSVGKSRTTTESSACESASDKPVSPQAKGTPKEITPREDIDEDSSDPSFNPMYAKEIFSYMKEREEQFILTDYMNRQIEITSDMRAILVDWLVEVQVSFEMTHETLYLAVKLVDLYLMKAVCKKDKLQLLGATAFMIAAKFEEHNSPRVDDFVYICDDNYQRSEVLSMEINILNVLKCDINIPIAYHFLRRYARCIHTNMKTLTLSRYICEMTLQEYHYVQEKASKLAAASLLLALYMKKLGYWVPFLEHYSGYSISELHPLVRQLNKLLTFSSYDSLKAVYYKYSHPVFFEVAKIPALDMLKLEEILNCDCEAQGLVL
# Cyclin-dependent kinase 1/cyclin B, sequence (O95067 whole entry): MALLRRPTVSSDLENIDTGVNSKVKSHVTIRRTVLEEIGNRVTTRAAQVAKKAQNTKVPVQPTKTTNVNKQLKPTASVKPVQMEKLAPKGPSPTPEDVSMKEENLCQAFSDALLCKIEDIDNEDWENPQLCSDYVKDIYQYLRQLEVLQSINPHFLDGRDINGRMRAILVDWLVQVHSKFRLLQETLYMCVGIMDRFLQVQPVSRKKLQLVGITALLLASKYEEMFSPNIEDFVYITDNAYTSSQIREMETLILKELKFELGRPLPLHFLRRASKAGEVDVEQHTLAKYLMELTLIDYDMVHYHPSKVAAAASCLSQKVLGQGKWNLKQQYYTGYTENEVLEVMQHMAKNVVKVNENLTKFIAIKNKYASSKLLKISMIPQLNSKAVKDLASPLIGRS
IC50 [2],IC50 [3],SMILES,GI50 [1]
13 µM,,c1nc(OCC2CCCCC2)c2nc[nH]c2n1,55 µM
> 10 µM,> 10 µM,Nc1cc(OCC2CCCCC2)nc(N)n1,> 100 µM
> 100 µM,,Cn1cnc2c(OCC3CCCCC3)nc(N)nc21,> 100 µM
